Test results as given in US20230219978A1, “COMPOUND HAVING MACROCYCLIC STRUCTURE AND USE THEREOF” (SCINNOHUB PHARMACEUTICAL CO., LTD, priority 2020, published 2023).

Assays:
Type in all cases: biochemical
RET wt = target: T1, RET wt (Homo sapiens, UniProt P07949); experiment: In vitro kinase activity assay (mobility shift assay), RET wild type; conditions: ATP 16 μM, reaction time 60 min
T1 construct: purchased Carna 08-159
Outline: (§1)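 Each enzyme was first exposed to test compound (top 1000 nM, 3-fold dilutions, 10 concentrations, one well each) for 10 min at room temperature. Adding ATP and peptide substrate started the reaction, which proceeded 30-240 min before stopping. Conversion was then measured and curves fitted for IC50.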

BTK C481S = target: T2, BTK C481S (Homo sapiens, UniProt Q06187, C481S); experiment: In vitro kinase activity assay (mobility shift assay), BTK C481S; conditions: ATP 90 μM, reaction time 30 min
T2 construct: purchased Carna 08-547
T2 sequence (Q06187 whole entry C481S): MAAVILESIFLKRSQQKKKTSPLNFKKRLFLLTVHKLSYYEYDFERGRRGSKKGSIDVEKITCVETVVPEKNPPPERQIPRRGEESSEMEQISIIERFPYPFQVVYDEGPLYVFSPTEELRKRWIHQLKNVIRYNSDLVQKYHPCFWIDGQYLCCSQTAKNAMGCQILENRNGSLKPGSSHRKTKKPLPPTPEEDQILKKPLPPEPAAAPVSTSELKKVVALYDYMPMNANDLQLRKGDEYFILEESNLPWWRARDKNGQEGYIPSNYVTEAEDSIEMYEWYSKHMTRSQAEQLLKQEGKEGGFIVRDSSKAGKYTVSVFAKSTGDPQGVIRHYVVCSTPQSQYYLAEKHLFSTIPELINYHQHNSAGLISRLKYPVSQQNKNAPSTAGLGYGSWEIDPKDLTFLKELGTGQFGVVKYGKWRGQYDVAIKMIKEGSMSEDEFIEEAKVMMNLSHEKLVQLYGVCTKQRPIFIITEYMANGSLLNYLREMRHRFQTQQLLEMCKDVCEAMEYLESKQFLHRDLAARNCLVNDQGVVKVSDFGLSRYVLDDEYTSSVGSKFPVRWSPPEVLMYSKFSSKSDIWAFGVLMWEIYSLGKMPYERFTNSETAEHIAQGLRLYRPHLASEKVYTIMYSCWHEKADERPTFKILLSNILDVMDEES
Method: (§2) The IC50 (half inhibitory concentration) values of the compounds were used as an indicator to evaluate the inhibitory effect of the compound on RET wild-type, RET mutant, TRKa, SRC, BTK and/or mutated BTK kinase.
(§3) Using the method of Mobility shift assay, the compounds were tested for inhibitory activity against the following kinases: RET wild type, RET mutant, TRKa, SRC, BTK and/or mutated BTK. The initial concentration of the test compound was 1000 nM, 3-fold dilution, 10 concentrations, detected in a well for each concentration.
(§4) 20 mM hydroxyethylpiperazineethanesulfonic acid (Hepes) (pH 7.5) buffer, 10 mM MgCl2, 1 mM ethylene glycol bis(aminoethyl ether)tetraacetic acid (EGTA), 0.02% polyoxyethylene lauryl ether (Brij35), 0.02 mg/ml […] (BSA), 0.1 mM Na3VO4, 2 mM dithiothreitol (DTT), 1% DMSO.
(§5) The test compounds were dissolved in 100% dimethyl sulfoxide (DMSO) system, and prepared as 10 mM for use, and stored in a nitrogen cabinet away from light.
(§6) • (1) Preparing 1× kinase reaction buffer. • (2) Preparation of compound concentration gradient: the initial concentration of the compounds was 1000 nM, which was diluted as 100-fold final concentration of solution in 100% dimethyl sulfoxide (DMSO) in a 384-well plate. The compound was accurately 3-fold diluted with the kinase buffer solution, 10 concentrations in total, and the final concentration was 0.0508 nM. The 100-fold final concentration of solution in 100% dimethyl sulfoxide (DMSO) was obtained by dilution in 384 source plate. The liquid separator Echo 550 was used to transfer 250 nl of 100-fold final concentration of compound to the target 384 well plate. 250 nl of DMSO was added to the positive and negative control wells. • (3) 2.5-fold final concentration of kinase solution was prepared by the 1× kinase buffer. • (4) 10 4, of 2.5-fold final concentration of kinase solution was added to the compound well and the positive control well, respectively; 10 4, of 1× kinase buffer was added to the negative control well. • (5) After centrifuging at 1000 rpm for 30 second, the reaction plate was shaken and mixed, followed by incubation at room temperature for 10 min. • (6) a mixed solution of 25/15-fold final concentration of adenosine triphosphate (ATP) and kinase substrate was prepared by 1× kinase buffer. • (7) The mixed solution (15 μL) of 25/15-fold final concentration of adenosine triphosphate (ATP) and substrate was added to initiate the reaction. • (8) 384-well plate was centrifuged at 1000 rpm for 30 second, shaken and mixed well, and then incubated at room temperature for 30-240 min. • (9) After stopping the kinase reaction, the plate was centrifugated at 1000 rpm for 30 second, shaken and mixed well. • (10)The conversion rate was read with Caliper EZ Reader.
(§7) wherein Conversion%_sample is the conversion rate reading of the sample; Conversion%_min: the mean value of negative control wells, representing the conversion rate reading of wells without enzymes; Conversion%_max: the mean value of positive control wells, representing the conversion rate reading of wells without compound inhibition.
(§8) The log value of concentration was taken as the X axis, and the percentage inhibition rate was taken as the Y axis. Graphpad 6.0 analysis software was used to fit the dose-response curve, so as to obtain the IC50 value of each compound on the enzyme activity

TRKa = target: T3, TRKa (Homo sapiens, UniProt P04629); experiment: In vitro kinase activity assay (mobility shift assay), TRKa; conditions: ATP 47.8 μM, reaction time 30 min
T3 construct: purchased Carna 08-186
T3 sequence (P04629 33-796): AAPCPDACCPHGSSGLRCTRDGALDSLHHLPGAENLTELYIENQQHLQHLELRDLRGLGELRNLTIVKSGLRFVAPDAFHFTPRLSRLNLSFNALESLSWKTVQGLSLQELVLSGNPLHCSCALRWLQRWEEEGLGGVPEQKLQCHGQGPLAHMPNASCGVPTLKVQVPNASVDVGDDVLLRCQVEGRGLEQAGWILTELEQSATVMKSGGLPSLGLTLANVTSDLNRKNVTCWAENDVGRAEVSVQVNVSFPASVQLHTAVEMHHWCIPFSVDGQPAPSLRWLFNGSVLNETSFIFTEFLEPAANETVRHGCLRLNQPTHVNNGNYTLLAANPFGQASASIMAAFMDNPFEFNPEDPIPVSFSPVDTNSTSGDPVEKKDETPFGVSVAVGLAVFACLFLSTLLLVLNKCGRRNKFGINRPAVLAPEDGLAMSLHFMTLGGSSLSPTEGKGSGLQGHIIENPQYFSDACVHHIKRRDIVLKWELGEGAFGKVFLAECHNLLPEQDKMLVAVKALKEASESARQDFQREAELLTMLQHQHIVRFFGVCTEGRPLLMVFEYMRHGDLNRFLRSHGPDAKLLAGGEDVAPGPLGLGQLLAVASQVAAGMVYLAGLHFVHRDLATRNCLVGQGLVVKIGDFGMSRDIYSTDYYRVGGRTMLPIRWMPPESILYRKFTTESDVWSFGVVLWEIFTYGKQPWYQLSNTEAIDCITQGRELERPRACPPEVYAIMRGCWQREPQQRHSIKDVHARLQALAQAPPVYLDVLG
Method: as §2, §3, §4, §5, §6, §7, §8

BTK = target: T4, BTK (Homo sapiens, UniProt Q06187); experiment: In vitro kinase activity assay (mobility shift assay), BTK; conditions: ATP 71 μM, reaction time 30 min
T4 construct: purchased Carna 08-180
T4 sequence (Q06187 whole entry): as the sequence (Q06187 whole entry C481S) above, with S481C counted along it
Method: as §2, §3, §4, §5, §6, §7, §8

RET V804M = target: T5, RET V804M (Homo sapiens, UniProt P07949, V804M); experiment: In vitro kinase activity assay (mobility shift assay), RET V804M; conditions: ATP 5.4 μM, reaction time 60 min
T5 construct: purchased signalchem R02-12GG
T5 sequence (P07949 29-1114 V804M): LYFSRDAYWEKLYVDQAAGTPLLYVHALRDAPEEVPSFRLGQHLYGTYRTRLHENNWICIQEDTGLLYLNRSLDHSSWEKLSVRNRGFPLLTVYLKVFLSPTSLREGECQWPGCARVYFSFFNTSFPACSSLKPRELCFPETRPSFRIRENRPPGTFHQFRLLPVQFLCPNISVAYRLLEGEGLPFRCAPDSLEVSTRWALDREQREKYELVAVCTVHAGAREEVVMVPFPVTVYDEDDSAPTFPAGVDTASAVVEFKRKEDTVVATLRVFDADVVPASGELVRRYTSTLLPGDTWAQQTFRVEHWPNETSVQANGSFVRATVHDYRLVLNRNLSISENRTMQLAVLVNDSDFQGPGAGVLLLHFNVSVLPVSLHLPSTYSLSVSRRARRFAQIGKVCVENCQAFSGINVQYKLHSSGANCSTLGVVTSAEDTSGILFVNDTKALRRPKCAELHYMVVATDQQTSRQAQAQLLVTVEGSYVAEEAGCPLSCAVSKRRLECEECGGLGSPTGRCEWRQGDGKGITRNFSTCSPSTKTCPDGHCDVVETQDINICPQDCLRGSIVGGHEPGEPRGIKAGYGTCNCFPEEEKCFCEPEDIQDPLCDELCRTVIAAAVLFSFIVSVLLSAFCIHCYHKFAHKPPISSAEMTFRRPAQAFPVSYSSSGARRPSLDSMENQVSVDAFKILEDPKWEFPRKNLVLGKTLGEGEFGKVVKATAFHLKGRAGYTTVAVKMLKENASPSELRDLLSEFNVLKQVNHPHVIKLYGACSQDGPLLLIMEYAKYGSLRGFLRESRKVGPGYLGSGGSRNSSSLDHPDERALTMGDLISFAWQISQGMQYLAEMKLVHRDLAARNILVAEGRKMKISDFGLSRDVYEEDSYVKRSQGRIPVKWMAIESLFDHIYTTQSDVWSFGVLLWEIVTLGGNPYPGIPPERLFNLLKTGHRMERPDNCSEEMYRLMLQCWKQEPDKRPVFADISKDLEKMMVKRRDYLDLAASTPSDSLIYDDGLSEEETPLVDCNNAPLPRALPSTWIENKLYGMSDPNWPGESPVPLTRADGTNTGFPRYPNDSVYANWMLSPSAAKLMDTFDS
Method: as §2, §3, §4, §5, §6, §7, §8

SRC = target: T6, SRC (Homo sapiens, UniProt P12931); experiment: In vitro kinase activity assay (mobility shift assay), SRC; conditions: ATP 19 μM, reaction time 30 min
T6 construct: purchased Carna 08-173
T6 sequence (P12931 whole entry): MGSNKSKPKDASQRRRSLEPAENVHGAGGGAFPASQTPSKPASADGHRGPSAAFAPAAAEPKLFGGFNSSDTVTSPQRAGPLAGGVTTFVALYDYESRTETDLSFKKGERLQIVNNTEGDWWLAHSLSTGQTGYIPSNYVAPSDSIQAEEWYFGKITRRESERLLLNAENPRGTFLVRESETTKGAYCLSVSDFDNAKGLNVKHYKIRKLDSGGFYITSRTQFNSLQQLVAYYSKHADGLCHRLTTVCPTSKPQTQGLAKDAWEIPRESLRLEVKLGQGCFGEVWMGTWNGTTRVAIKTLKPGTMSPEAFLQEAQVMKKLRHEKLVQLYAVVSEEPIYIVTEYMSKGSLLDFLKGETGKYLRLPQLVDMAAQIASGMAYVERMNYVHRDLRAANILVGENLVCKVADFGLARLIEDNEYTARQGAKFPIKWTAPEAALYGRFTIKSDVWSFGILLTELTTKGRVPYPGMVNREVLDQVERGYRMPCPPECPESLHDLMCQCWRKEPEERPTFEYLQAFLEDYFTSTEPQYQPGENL
Method: as §2, §3, §4, §5, §6, §7, §8

RET G810R = target: T7, RET G810R (Homo sapiens, UniProt P07949, G810R); experiment: In vitro kinase activity assay (mobility shift assay), RET G810R; conditions: ATP 201 μM, reaction time 4 h
T7 construct: purchased Proqinase 1724-0000-1
T7 sequence (P07949 29-1114 G810R): as the sequence (P07949 29-1114 V804M) above, with M776V, G782R counted along it
Outline: as §1

T1 sequence (P07949 29-1114): as the sequence (P07949 29-1114 V804M) above, with M776V counted along it

Row | Compound | IC50 (RET wt) | IC50 (BTK C481S) | IC50 (TRKa) | IC50 (BTK) | IC50 (RET V804M) | IC50 (SRC) | IC50 (RET G810R)
1 | C[C@H]1CNC(=O)c2cnn3cc(-c4cccc(Cl)c4)c(nc23)NCc2cc(F)cnc2O1 [Compound 3, (S, 1^3E, 1^4E)-1^6-(3-chlorophenyl)-4^5-fluoro-6-methyl-5-oxa-2,8-diaza-1(5,3)-pyrazolo[1,5-a]pyrimidina-4(3,2)-pyridinacyclononaphan-9-one] | 22 nM | 54.8 nM | > 10000 nM |  |  |  | 
2 | C[C@H]1CNC(=O)c2cnn3cc(N4CCOCC4)c(nc23)NCc2cc(F)cnc2O1 [Compound 17, (S, 1^3E, 1^4E)-4^5-fluoro-6-methyl-1^6-morpholino-5-oxa-2,8-diaza-1(5,3)-pyrazolo[1,5-a]pyrimidina-4(3,2)-pyridinacyclononaphan-9-one] | > 10000 nM | > 10000 nM | > 10000 nM | > 10000 nM |  |  | 
3 | C[C@H]1CNC(=O)c2cnn3cc(-c4cnn(C)c4)c(nc23)NCc2cc(F)cnc2O1 [Compound 24] | 20 nM | 398 nM | > 10000 nM | 296 nM |  |  | 
4 | C[C@H]1CNC(=O)c2cnn3cc(-c4ccc(N5CCOC5=O)cc4Cl)c(nc23)NCc2cc(F)cnc2O1 [Compound 40, (S, 1^3E, 1^4E)-1^6-(2-chloro-4-(2-oxaoxazolidin-3-yl)phenyl)-4^5-fluoro-6-methyl-5-oxa-2,8-diaza-1(5,3)-pyrazolo[1,5-a]pyrimidin-4(3,2)-pyridinacyclononaphan-9-one] | 465 nM |  |  | 176 nM |  | 105 nM | 
5 | COC(=O)Nc1ccc(-c2c3nc4c(cnn4c2N)C(=O)NC[C@H](C)Oc2ncc(F)cc2CN3)cc1 [Compound 49, methyl (4-((S, 1^3E, 1^4E)-1^7-amino-4^5-fluoro-6-methyl-9-oxo-5-oxa-2,8-diaza-1(5,3)-pyrazolino [1,5-a]pyrimidin-4(3,2)-pyridinacyclononaphan-1^6-yl)-phenyl)carbamate] | < 0.51 nM | 15 nM |  | 9.2 nM | 1.3 nM |  | 9.3 nM
6 | CNc1c(-c2ccccc2)c2nc3c(cnn13)C(=O)NC[C@H](C)Oc1ncc(F)cc1CN2 [Example 64, (S, 1^3E, 1^4E)-4^5-fluoro-6-methyl-1^7-(methylamino)-1^6-phenyl-5-oxa-2,8-diaza-1(5,3)-pyrazolopyrimidin-4(3,2)-pyridinacyclononaphan-9-one] | 128 nM |  |  | > 1000 nM |  | 61 nM | 
7 | C[C@H]1CNC(=O)c2cnn3c(N)c(-c4ccccc4F)c(nc23)NCc2cc(F)cnc2O1 [Example 66] | 1.3 nM | 1.45 nM | 101 nM | 1.7 nM |  |  | 53.7 nM
8 | Cc1nn2c(N)c(-c3ccccc3)c3nc2c1C(=O)NC[C@H](C)Oc1ncc(F)cc1CN3 [Example 74, (S, 1^3E, 1^4E)-1^7-amino-4^5-fluoro-1^2,6-dimethyl-1^6-phenyl-5-oxa-2,8-diaza-1(5,3)-pyrazolo[1,5-a]pyrimidinyl-4(3,2)-pyridinacyclononaphan-9-one] | 323 nM | > 1000 nM |  | > 1000 nM | > 1000 nM |  | > 1000 nM
9 | C[C@H]1CN(C)C(=O)c2cnn3c(N)c(-c4ccccc4)c(nc23)NCc2cc(F)cnc2O1 [Example 75, (S, 1^3E, 1^4E)-1^7-amino-4^5-fluoro-6,8-dimethyl-1^6-phenyl-5-oxo-2,8-diaza-1(5,3)-pyrazolo[1,5-a]pyrimidin-4(3,2)-pyridinacyclononaphan-9-one] | 20 nM | 52 nM |  | 22 nM | 311 nM |  | > 1000 nM
10 | C[C@H]1CNC(=O)c2c(C#N)nn3c(N)c(-c4ccccc4)c(nc23)NCc2cc(F)cnc2O1 [Example 77, (S, 1^3E, 1^4E)-1^2-cyano-1^6-phenyl-1^7-amino-4^5-fluoro-6-methyl-5-oxa-2,8-diaza-1(5,3)-pyrazolo[1,5-a]pyrimidinyl-4(3,2)-pyridinacyclononaphan-9-one] | > 1000 nM | > 1000 nM |  | > 1000 nM | > 1000 nM |  | > 1000 nM
11 | Nc1c(-c2ccccc2)c2nc3c(cnn13)C(=O)NC1CCCC1Oc1ncc(F)cc1CN2 (stereo not drawn) [Example 78, (6^3E, 6^4E)-6^7-amino-1^5-fluoro-6^6-phenyl-2-oxo-4,7-diaza-6(3,5)-pyrazolo[1,5-a]pyrimidin-1(2,3)-pyridin-3(1, 2)-cyclopentanacyclooctaphan-5-one] | 2.5 nM | 1.7 nM |  | 1.7 nM | 24 nM |  | 337 nM
12 | Nc1c(-c2ccccc2)c2nc3c(cnn13)C(=O)N1CCCC1COc1ncc(F)cc1CN2 (stereo not drawn) [Example 79] | 104 nM | 97 nM |  | 45 nM | > 1000 nM |  | > 1000 nM

Continued, values first:

Row | IC50 (RET wt) | IC50 (BTK C481S) | IC50 (TRKa) | IC50 (BTK) | IC50 (RET V804M) | IC50 (SRC) | IC50 (RET G810R) | Compound
13 | 8.2 nM | 13 nM | > 10000 nM | 25.9 nM |  |  |  | C[C@H]1CNC(=O)c2cnn3cc(-c4ccc(Cl)cc4)c(nc23)NCc2cc(F)cnc2O1 [Compound 9, (S, 1^3E, 1^4E)-1^6-(4-chlorophenyl)-4^5-fluoro-6-methyl-5-oxa-2,8-diaza-1(5,3)-pyrazolo[1,5-a]pyrimidina-4(3,2)-pyridinacyclononaphan-9-one]
14 | 5.1 nM |  | > 10000 nM | 5180 nM | 76 nM | 3110 nM | 15.1 nM | COC(=O)Nc1ccc(-c2cn3ncc4c3nc2NCc2cc(F)cnc2O[C@@H](C)CNC4=O)cc1 [Compound 30, methyl (4-((S, 1^3E, 1^4E)-4^5-fluoro-6-methyl-9-oxo-5-oxa-2,8-diaza-1(5,3)-pyrazolo[1,5-a]pyrimidin-4(3,2)-pyridinacyclononaphan-1^6-yl)phenyl) carbamate]
15 | 4.05 nM |  | > 10000 nM | > 10000 nM |  | 843 nM | 12.3 nM | CC(C)OC(=O)Nc1ccc(-c2cn3ncc4c3nc2NCc2cc(F)cnc2O[C@@H](C)CNC4=O)cc1 [Compound 31, iso-propyl (4-((S, 1^3E, 1^4E)-4^5-fluoro-6-methyl-9-oxo-5-oxa-2,8-diaza-1(5,3)-pyrazolo[1,5-a]pyrimidin-4(3,2)-pyridinacyclononaphan-1^6-yl)phenyl)carbamate]
16 | 407 nM |  |  | > 10000 nM |  | 196 nM |  | C[C@H]1CNC(=O)c2cnn3cc(-c4ccccn4)c(nc23)NCc2cc(F)cnc2O1 [Compound 33]
17 | 922 nM | > 1000 nM |  | > 1000 nM | > 1000 nM |  | > 1000 nM | C[C@H]1CNC(=O)c2c(Br)nn3c(N)c(-c4ccccc4)c(nc23)NCc2cc(F)cnc2O1 [Example 76, (S, 1^3E, 1^4E)-1^2-bromo-1^6-phenyl-1^7-amino-4^5-fluoro-6-methyl-5-oxa-2,8-diaza-1(5,3)-pyrazolo[1,5-a]pyrimidinyl-4(3,2)-pyridinacyclononaphan-9-one]
